Results reported in PMC11089506 (Journal of Medicinal Chemistry, 2024).
Where a name gives a salt, the structure may show the parent alone. Read-outs that look alike come from different tables or passages of the source.

What was measured:
human 5-HT2AR = human 5-HT2AR (Homo sapiens, UniProt P28223); experiment: Ca2+/Fluo-4 assay, agonist mode, stable 5-HT2AR-HEK293 cells; settings: for 5-HT2AR Rmax (%): % of the 5-HT Rmax; for 5-HT2AR Rmax ± S.E.M.: % of the 5-HT Rmax on the same 96-well plate; for fold drop in agonist potency (fold higher EC50) at 5-HT2AR: relative to (S)-11
Sequence of human 5-HT2AR (P28223 whole entry): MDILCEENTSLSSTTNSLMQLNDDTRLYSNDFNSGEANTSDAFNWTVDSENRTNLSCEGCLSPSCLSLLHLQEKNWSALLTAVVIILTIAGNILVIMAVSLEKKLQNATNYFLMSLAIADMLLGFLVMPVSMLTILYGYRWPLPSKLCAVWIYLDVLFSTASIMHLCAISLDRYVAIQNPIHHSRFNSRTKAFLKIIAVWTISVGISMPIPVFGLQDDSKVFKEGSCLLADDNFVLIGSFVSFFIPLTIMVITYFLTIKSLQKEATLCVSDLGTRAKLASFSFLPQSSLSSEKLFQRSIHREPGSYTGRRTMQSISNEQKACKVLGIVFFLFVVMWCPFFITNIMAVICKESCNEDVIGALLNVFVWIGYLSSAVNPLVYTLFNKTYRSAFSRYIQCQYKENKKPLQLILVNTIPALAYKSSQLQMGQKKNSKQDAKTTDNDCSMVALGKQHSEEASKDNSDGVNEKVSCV

human 5-HT2CR = human 5-HT2CR (Homo sapiens, UniProt P28335); experiment: Ca2+/Fluo-4 assay, agonist mode, stable 5-HT2CR-HEK293 cells; settings: for 5-HT2CR Rmax (%): % of the 5-HT Rmax; for 5-HT2CR Rmax ± S.E.M.: % of the 5-HT Rmax on the same 96-well plate
Sequence of human 5-HT2CR (P28335 33-458): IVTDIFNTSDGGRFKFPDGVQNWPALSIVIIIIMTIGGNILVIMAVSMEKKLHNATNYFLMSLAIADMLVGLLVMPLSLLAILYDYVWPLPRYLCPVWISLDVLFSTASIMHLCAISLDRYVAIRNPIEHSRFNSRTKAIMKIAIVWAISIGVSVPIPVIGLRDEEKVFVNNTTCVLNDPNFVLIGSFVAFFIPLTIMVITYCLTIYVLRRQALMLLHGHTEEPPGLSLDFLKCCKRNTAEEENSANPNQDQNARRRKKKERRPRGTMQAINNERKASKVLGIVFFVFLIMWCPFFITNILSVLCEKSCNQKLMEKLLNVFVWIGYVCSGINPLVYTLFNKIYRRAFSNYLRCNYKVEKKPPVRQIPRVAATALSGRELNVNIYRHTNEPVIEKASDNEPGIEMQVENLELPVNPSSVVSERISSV

[1] = 5-HT2CR EC50 (nM), Table 2, at least 3 independent experiments
[2] = read-out: 5-HT2AR EC50, Table 1, at least 3 independent experiments
[3] = read-out: 5-HT2CR EC50, Table 1, at least 3 independent experiments
[4] = read-out: 5-HT2AR EC50, Table 2, at least 3 independent experiments
[5] = 5-HT2CR EC50 (nM), Table 1, at least 3 independent experiments
[6] = read-out: 5-HT2CR EC50, Table 2, at least 3 independent experiments
[7] = 5-HT2AR EC50 (nM), Table 2, at least 3 independent experiments

Row | SMILES | 5-HT2AR Rmax (%) (human 5-HT2AR; Table 2) | 5-HT2AR pEC50 ± S.E.M. (human 5-HT2AR; Table S2) | 5-HT2AR Rmax ± S.E.M. (human 5-HT2AR; Table S2) [%] | EC50 (human 5-HT2CR; [1]) [nM] | EC50 (human 5-HT2AR; [2]) [nM] | 5-HT2CR pEC50 ± S.E.M. (human 5-HT2CR; Table S2) | EC50 (human 5-HT2CR; [3]) [nM] | EC50 (human 5-HT2AR; [4]) [nM] | further results
1 | CCN1CCC[C@@H](c2cc(OC)c(C(F)(F)F)cc2OC)C1 [(S)-20, (S)-3-(2,5-Dimethoxy-4-(trifluoromethyl)phenyl)-1-ethylpiperidine] | 44 | 5.82 ± 0.08 | 44 ± 3 | > 10000 |  |  |  |  | 
2 | COc1cc(C2CCCNC2)c(OC)cc1C.Cl (centres unmarked) [Compound 12dis, 3-(2,5-Dimethoxy-4-methylphenyl)piperidine Hydrochloride] |  | 6.58 ± 0.06 |  |  | 260 | 5.92 ± 0.08 | 1200 |  | 
3 | CCSc1cc(OC)c(C2CCCNC2)cc1OC.Cl (centres unmarked) [Compound 16eu, 3-(2,5-Dimethoxy-4-(ethylthio)phenyl)piperidine Hydrochloride] |  | 7.42 ± 0.09 |  |  | 38 | 6.25 ± 0.08 | 570 |  | 
4 | COc1cc(C(F)(F)F)c(OC)cc1CCN [Compound 18, 2-(2,5-Dimethoxy-4-(trifluoromethyl)phenyl)ethan-1-amine Hydrochloride, reference compound] | 67 |  | 67 ± 5 |  |  |  |  |  | EC50 (human 5-HT2AR; 5-HT2AR pEC50 ± S.E.M., Table S2): 0.724 nM; fold higher agonist potency at 5-HT2AR than at 5-HT2CR (selectivity) (human 5-HT2AR; 5-HT2AR vs 5-HT2CR): 10 fold; EC50 (human 5-HT2CR; 5-HT2CR pEC50 ± S.E.M., Table S2): 7.59 nM; 5-HT2CR Rmax (%) (human 5-HT2CR; Table 2): 71%; 5-HT2CR Rmax ± S.E.M. (human 5-HT2CR; Table S2): 71 ± 2%
5 | CCOc1cc(C(F)(F)F)c(OC)cc1C1CCCNC1.Cl (centres unmarked) [Compound 24dis, 3-(2-Ethoxy-5-methoxy-4-(trifluoromethyl)phenyl)piperidine Hydrochloride] | 77 | 6.39 ± 0.08 | 77 ± 7 | > 10000 |  | 5.56 ± 0.02 |  | 410 | EC50 (human 5-HT2CR; read-out: 5-HT2CR EC50, Table S2): 2700 nM
6 | COc1cc(C(F)(F)F)ccc1C1CCCNC1.Cl (centres unmarked) [Compound 22eu, 3-(2-Methoxy-4-(trifluoromethyl)phenyl)piperidine Hydrochloride] | 68 | 7.16 ± 0.05 | 68 ± 2 | > 10000 |  |  |  | 69 | 
7 | COc1cc(C2CCCNC2)c(OC)cc1SC(C)C (centres unmarked) [Compound 17eu, 3-(4-(Isopropylthio)-2,5-dimethoxyphenyl)piperidine] |  | 6.81 ± 0.09 |  |  | 160 |  |  |  | EC50 (human 5-HT2CR; [5]): > 10000 nM
8 | COc1cc(C2CCCNC2)ccc1C(F)(F)F.Cl (centres unmarked) [Compound 23dis, 3-(3-Methoxy-4-(trifluoromethyl)phenyl)piperidine Hydrochloride] | 65 | 5.61 ± 0.07 | 65 ± 3 |  |  | 5.85 ± 0.13 |  | 2500 | 5-HT2CR Rmax (%) (human 5-HT2CR; Table 2): 35%; 5-HT2CR Rmax ± S.E.M. (human 5-HT2CR; Table S2): 35 ± 3%; EC50 (human 5-HT2CR; [6]): 1400 nM
9 | CCc1cc(OC)c(C2CCCNC2)cc1OC.Cl (centres unmarked) [Compound 13dis, 3-(4-Ethyl-2,5-dimethoxyphenyl)piperidine Hydrochloride] |  | 6.94 ± 0.09 |  |  | 110 | 6.19 ± 0.12 | 640 |  | 
10 | COc1cc(C2CCCNC2)c(OC)cc1SC.Cl (centres unmarked) [Compound 15dis, 3-(2,5-Dimethoxy-4-(methylthio)phenyl)piperidine Hydrochloride] |  | 6.75 ± 0.06 |  |  | 180 | 5.63 ± 0.03 | 2300 |  | 
11 | CCOc1cc(C2CCCNC2)c(OC)cc1C(F)(F)F.Cl (centres unmarked) [Compound 25dis, 3-(5-Ethoxy-2-methoxy-4-(trifluoromethyl)phenyl)piperidine Hydrochloride] | 86 | 6.50 ± 0.10 | 86 ± 6 | > 10000 |  |  |  | 320 | 
12 | CCSc1cc(OC)c(C2CCCNC2)cc1OC.Cl (centres unmarked) [Compound 16dis, 3-(2,5-Dimethoxy-4-(ethylthio)phenyl)piperidine Hydrochloride] |  | 6.73 ± 0.10 |  |  | 190 | 6.11 ± 0.08 | 780 |  | 
13 | COc1cc(C2CCCNC2)c(OC)cc1Cl (centres unmarked) [Compound 8dis, 3-(4-Chloro-2,5-dimethoxyphenyl)piperidine] |  | 6.16 ± 0.11 |  |  | 690 | 5.75 ± 0.04 | 1800 |  | 
14 | CCOc1cc(C(F)(F)F)c(OC)cc1C1CCCNC1.Cl (centres unmarked) [Compound 24eu, 3-(2-Ethoxy-5-methoxy-4-(trifluoromethyl)phenyl)piperidine Hydrochloride] | 40 | 7.42 ± 0.10 | 40 ± 3 |  |  |  |  | 38 | EC50 (human 5-HT2CR; 5-HT2CR EC50, Table S2): > 10000 nM
15 | COc1cc(C2CCCNC2)ccc1C(F)(F)F.Cl (centres unmarked) [Compound 23eu, 3-(3-Methoxy-4-(trifluoromethyl)phenyl)piperidine Hydrochloride] | 68 | 5.74 ± 0.09 | 68 ± 7 | > 10000 |  |  |  | 1800 | 
16 | CCOc1cc(C(F)(F)F)c(OCC)cc1C1CCCNC1.Cl (centres unmarked) [Compound 26eu, 3-(2,5-Diethoxy-4-(trifluoromethyl)phenyl)piperidine Hydrochloride] | 47 | 6.99 ± 0.07 | 47 ± 6 | > 10000 |  |  |  | 100 | fold drop in agonist potency (fold higher EC50) at 5-HT2AR (human 5-HT2AR): 30 fold
17 | COc1cc(C2CCCNC2)ccc1C(F)(F)F.Cl (centres unmarked) [Compound 23, 3-(3-Methoxy-4-(trifluoromethyl)phenyl)piperidine Hydrochloride] |  |  |  |  |  |  |  |  | fold drop in agonist potency (fold higher EC50) at 5-HT2AR (human 5-HT2AR): more than 500 fold
18 | CCOc1cc(C(F)(F)F)c(OCC)cc1C1CCCNC1.Cl (centres unmarked) [Compound 26dis, 3-(2,5-Diethoxy-4-(trifluoromethyl)phenyl)piperidine Hydrochloride] | 69 | 5.52 ± 0.06 | 69 ± 4 |  |  |  |  | 3000 | EC50 (human 5-HT2CR; [6]): > 10000 nM
19 | COc1cc(C2CCCNC2)c(OC)cc1SC(C)C (centres unmarked) [Compound 17dis, 3-(4-(Isopropylthio)-2,5-dimethoxyphenyl)piperidine] |  | 6.54 ± 0.09 |  |  | 290 | 5.64 ± 0.05 | 2300 |  | 
20 | CCc1cc(OC)c(C2CCCNC2)cc1OC.Cl (centres unmarked) [Compound 13eu, 3-(4-Ethyl-2,5-dimethoxyphenyl)piperidine Hydrochloride] |  | 7.39 ± 0.11 |  |  | 41 | 6.42 ± 0.12 | 380 |  | agonist activity at 5-HT2CR (in words) (human 5-HT2CR): measurable agonist activity
21 | COc1cc(C(F)(F)F)c(OC)cc1[C@H]1CCCN(C)C1 [(R)-19, (R)-3-(2,5-Dimethoxy-4-(trifluoromethyl)phenyl)-1-methylpiperidine] | 53 | 5.96 ± 0.09 | 53 ± 8 | > 10000 |  |  |  |  | 
22 | COc1cc(C2CNC2)c(OC)cc1Br [Compound 4, 3-(4-Bromo-2,5-dimethoxyphenyl)azetidine Hydrochloride] |  | 8.80 ± 0.10 | 97 ± 3 |  | 1.6 | 8.24 ± 0.07 | 5.2 |  | 5-HT2AR Rmax (%) (human 5-HT2AR; Table 1): 97 ± 3%; 5-HT2CR Rmax ± S.E.M. (human 5-HT2CR; Table S2): 90 ± 3%
23 | Br.COc1cc(C2CCNC2)c(OC)cc1Br (centres unmarked) [Compound 5dis, 3-(4-Bromo-2,5-dimethoxyphenyl)pyrrolidine Hydrobromide] |  | 8.11 ± 0.08 | 39 ± 4 |  | 7.7 | 7.75 ± 0.08 | 18 |  | 5-HT2AR Rmax (%) (human 5-HT2AR; Table 1): 39 ± 4%; Rmax at 5-HT2CR (human 5-HT2CR): 73%; 5-HT2CR Rmax (%) (human 5-HT2CR; Table 1): 16 ± 3%; 5-HT2CR Rmax ± S.E.M. (human 5-HT2CR; Table S2): 16 ± 3%
24 | COc1cc(C2CCCNC2)c(OC)cc1Br (centres unmarked) [Compound 6dis, 3-(4-Bromo-2,5-dimethoxyphenyl)piperidine] |  |  |  |  |  |  |  |  | EC50 (human 5-HT2AR; 5-HT2AR EC50 (nM), Table 1, at least 3 independent experiments): 370 nM; EC50 (human 5-HT2CR; [5]): 1900 nM
25 | COc1cc(C(F)(F)F)c(OC)cc1[C@H]1CCCNC1 [(R)-11, 3-(2,5-Dimethoxy-4-(trifluoromethyl)phenyl)piperidine Hydrochloride] |  |  |  |  |  | 6.07 ± 0.06 |  |  | 
26 | Cl.FC(F)(F)c1ccc(C2CCCNC2)cc1 (centres unmarked) [Compound 21, 3-(4-(Trifluoromethyl)phenyl)piperidine Hydrochloride] |  |  |  | > 10000 |  |  |  |  | agonist activity at 5-HT2AR (in words) (human 5-HT2AR): negligible agonist activity; EC50 (human 5-HT2AR; [7]): > 10000 nM; agonist activity at 5-HT2CR (in words) (human 5-HT2CR): negligible agonist activity
27 | CCN1CCC[C@H](c2cc(OC)c(C(F)(F)F)cc2OC)C1 [(R)-20, (R)-3-(2,5-Dimethoxy-4-(trifluoromethyl)phenyl)-1-ethylpiperidine] |  |  |  | > 10000 |  |  |  |  | EC50 (human 5-HT2AR; [7]): > 10000 nM
28 | NCCc1c[nH]c2ccc(O)cc12 [Compound 5-HT, 5-hydroxytryptamine, reference compound] |  |  | 100 |  |  |  |  |  | 5-HT2AR Rmax (%) (human 5-HT2AR; Table 1): 100%
29 | COc1cc(C(F)(F)F)ccc1C1CCCNC1.Cl (centres unmarked) [Compound 22dis, 3-(2-Methoxy-4-(trifluoromethyl)phenyl)piperidine Hydrochloride] | 80 | 6.18 ± 0.07 | 80 ± 5 |  |  | 5.85 ± 0.05 |  | 660 | EC50 (human 5-HT2CR; [6]): 1400 nM
